Laboratory results published in publication PMC8659243, “Design, Synthesis and Tumour-Selective Toxicity of Novel 1-[3-{3,5-Bis(benzylidene)-4-oxo-1-piperidino}-3-oxopropyl]-4-piperidone Oximes and Related Quaternary Ammonium Salts” (Molecules, 2021).

Tests used:
[1] = Average over HGF, HPLF and HPC non-malignant cells; type: cell-based; conditions: human, HPLF and HPC non-malignant cells (average of the three)
Experimental: (§1) A literature procedure was followed when the compounds in series 3 and 4 were evaluated against three human oral squamous cell carcinoma cell lines Ca9-22 (RCB-1976), HSC-2 (RCB1945), HSC-4 (RCB1902) (purchased from RIKEN Cell Bank, Tukuba, Japan) and three human normal oral cells, gingival fibroblast (HGF), periodontal ligament fibroblast (HPLF) and pulp cells (HPC) (established according to the guideline of the intramural ethic committee, A0808) except the duration of incubation was increased from 24 h to 48 h. In brief, various concentrations of the compounds were added to the DMEM media, which was supplemented by 10% heat-inactivated fetal bovine serum. Incubation was undertaken at 37 °C. At the completion of the experiment, cell viability was determined by the MTT method.

[2] = system: Ca9-22 cells; assay: Cytotoxicity against Ca9-22 cells, MTT method, 48 h; type: cell-based, human; conditions: for CC50: Homo sapiens, Ca9-22, concentration required to kill 50% of the cells, 48 h, MTT, read-out: CC50 Ca9-22; for SI Ca9-22: average CC50 towards HGF, HPLF, HPC divided by CC50 against Ca9-22
Experimental: as §1

[3] = Cytotoxicity against non-malignant HPC cells, MTT method, 48 h; type: cell-based; conditions: human, pulp cells (HPC)
Experimental: as §1

[4] = Cytotoxicity against non-malignant HPLF cells, MTT method, 48 h; type: cell-based; conditions: human, periodontal ligament fibroblasts (HPLF)
Experimental: as §1

[5] = system: CEM T-lymphoblastic leukemia cells; assay: Cytotoxicity against CEM cells, MTT method, 24 h; type: cell-based; conditions: Homo sapiens, CCRF-CEM, concentration required to inhibit cell growth by 50%
Experimental: The method used for the evaluation of various compounds against human CEM cells has been reported previously. In brief, cells were grown in RPMI-1640 medium supplemented with 10% heat-inactivated fetal bovine serum. Different concentrations of compounds were added to the media, and after 24 h incubation, cytotoxicity was measured by the MTT method.

[6] = Cytotoxicity against non-malignant HGF cells, MTT method, 48 h; type: cell-based; conditions: human, gingival fibroblasts (HGF)
Experimental: as §1

[7] = system: HSC-2 cells; assay: Cytotoxicity against HSC-2 cells, MTT method, 48 h; type: cell-based, human; conditions: for CC50: Homo sapiens, HSC-2, concentration required to kill 50% of the cells, 48 h, MTT; for SI HSC-2: average CC50 towards HGF, HPLF, HPC divided by CC50 against HSC-2
Experimental: as §1

[8] = system: Ca9-22, HSC-2 and HSC-4 cells; assay: Average over Ca9-22, HSC-2 and HSC-4 neoplastic cells; type: cell-based, human; conditions: for CC50: Homo sapiens, average of Ca9-22, HSC-2 and HSC-4, read-out: Average CC50; for Average SI: average of SI for Ca9-22, HSC-2 and HSC-4
Experimental: In order to assess whether the compounds in series 3 and 4 are more toxic to neoplasms than non-malignant cells, selective index (SI) figures were calculated. In the in vivo situation, a tumour is surrounded by a number of non-malignant cells.
In order to identify the most promising lead compounds in terms of both cytotoxic potencies and favourable SI values, potency–selectivity expression (PSE) values were computed. […] Outstanding results may be noted for four compounds that have PSE values in excess of 100,000 namely 3d, 4c–e. […] However, the relative SI/PSE distribution patterns between series 3 and 4 (from a to h) are nearly superimposable with each other (Figure 3). […] It has been reported that 3,5-bis(3-iodo-5-methoxy-4-propoxybenzylidene)-N-acetylpiperidin-4-one inhibited tubulin and destabilization of microtubules, while 3,5-bis(3,4,5-trimethoxybenzylidene)-N-benzoylpiperidin-4-one destabilizes the microtubules. Thus, it remained to investigate whether compound 4d acts as an inhibitor of the microtubule.
as §1

[9] = system: HSC-4 cells; assay: Cytotoxicity against HSC-4 cells, MTT method, 48 h; type: cell-based, human; conditions: for CC50: Homo sapiens, HSC-4, concentration required to kill 50% of the cells, 48 h, MTT, read-out: CC50 HSC-4; for SI HSC-4: average CC50 towards HGF, HPLF, HPC divided by CC50 against HSC-4
Experimental: as §1

SMILES | CC50 at 48 h [1] [nM] | CC50 [2] [nM] | SI Ca9-22 [2] | CC50 at 48 h [3] [nM] | CC50 at 48 h [4] [nM] | IC50 [5] [nM] | CC50 at 48 h [6] [nM] | CC50 [7] [nM] | SI HSC-2 [7] | CC50 [8] [nM] | Average SI [8] | CC50 [9] [nM] | SI HSC-4 [9]
O=C1/C(=C/c2ccc(O)cc2)CN(C(=O)CCN2CCC(=NO)CC2)C/C1=C\c1ccc(O)cc1 [Compound 3i, (3~{E},5~{E})-3,5-bis[(4-hydroxyphenyl)methylene]-1-[3-(4-hydroximino-1-piperidyl)propanoyl]piperidin-4-one] | 84200 | 16500 ± 2350 | 5.10 | 99300 ± 1160 | 88300 ± 4560 | 11100 ± 1010 | 64900 ± 5660 | 18000 ± 2060 | 4.68 | 17900 | 4.71 | 19300 ± 1610 | 4.36
C[N+]1(CCC(=O)N2C/C(=C\c3ccc([N+](=O)[O-])cc3)C(=O)/C(=C/c3ccc([N+](=O)[O-])cc3)C2)CCC(=NO)CC1 (centres unmarked) [Compound 4e, (3~{E},5~{E})-1-[3-(4-hydroximino-1-piperidyl)propanoyl]-3,5-bis[(4-nitrophenyl)methylene]piperidin-4-one methiodide] | 2070 | 20 | 104 | 2460 ± 1230 | 2590 ± 270 | 870 ± 20 | 1150 ± 350 | 50 ± 10 | 41.4 | 40 | 60.0 | 60 ± 10 | 34.5
Cc1ccc(/C=C2\CN(C(=O)CC[N+]3(C)CCC(=NO)CC3)C/C(=C\c3ccc(C)cc3)C2=O)cc1 (centres unmarked) [Compound 4f, (3~{E},5~{E})-3,5-bis[(4-methylphenyl)methylene]-1-[3-(4-hydroximino-1-piperidyl)propanoyl]piperidin-4-one methiodide] | 9560 | 180 ± 20 | 53.1 | 15200 ± 1900 | 8370 ± 810 | 4180 ± 650 | 5120 ± 240 | 460 ± 100 | 20.8 | 350 | 32.6 | 400 ± 230 | 23.9
COc1ccc(/C=C2\CN(C(=O)CC[N+]3(C)CCC(=NO)CC3)C/C(=C\c3ccc(OC)cc3)C2=O)cc1 (centres unmarked) [Compound 4g, (3~{E},5~{E})-3,5-bis[(4-methoxyphenyl)methylene]-1-[3-(4-hydroximino-1-piperidyl)propanoyl]piperidin-4-one methiodide] | 12700 | 310 ± 170 | 41.0 | 15600 ± 3160 | 16200 ± 4050 | 13000 ± 950 | 6300 ± 270 | 680 ± 40 | 18.7 | 550 | 26.3 | 660 ± 50 | 19.2
COc1cc(/C=C2\CN(C(=O)CC[N+]3(C)CCC(=NO)CC3)C/C(=C\c3cc(OC)c(OC)c(OC)c3)C2=O)cc(OC)c1OC (centres unmarked) [Compound 4h, (3~{E},5~{E})-1-[3-(4-hydroximino-1-piperidyl)propanoyl]-3,5-bis[(3,4,5-trimethoxyphenyl)methylene]piperidin-4-one methiodide] | 1430 | 70 ± 10 | 20.4 | 2350 ± 820 | 1320 ± 40 | 5120 ± 140 | 620 ± 60 | 220 ± 40 | 6.50 | 160 | 11.6 | 180 ± 40 | 7.94
COc1cccc2c1C(=O)c1c(O)c3c(c(O)c1C2=O)C[C@@](O)(C(=O)CO)C[C@@H]3O[C@H]1C[C@H](N)[C@H](O)[C@H](C)O1 [Doxorubicin, reference compound] | 7310 | 470 ± 120 | 15.6 | 8770 ± 2140 | 9730 ± 470 | – | 3440 ± 530 | 110 ± 10 | 66.5 | 240 | 43.6 | 150 ± 50 | 48.7
